Test system: mold fungi
Assay: Coatings test: mold resistance of emulsion paint (formula A)
Description: The substance under test was incorporated into the test paint, at the stated concentration, using a dissolver.
The procedure for testing the emulsion paints for mold resistance was as follows:
The coating material under test was applied to both sides of a suitable substrate. In order to obtain realistic results, one portion of the test specimens was leached with running water (24 h, 20° C.) prior to the test for mold resistance; a further portion was treated with a warm stream of fresh air (7 days, 40° C.).
The samples thus prepared were then placed on an agar nutrient medium, and both samples and nutrient medium were contaminated with fungal spores. Inspection took place after 2-3 weeks' storage (29±1° C., 80-90% relative humidity).
Contamination was carried out using spores of the following mold fungi which are known to destroy coating materials or which are frequently encountered on coatings:
Alternaria tennis Aspergillus flavus Aspergillus niger Aspergillus ustus Cindosporum herbarum Paecilomyces variotii Penicillum citrium Aureobasidium pullulans Stachybotrys chartarum

With `CCCCNC(=O)OCC#CI` [pure IPBC, 3-iodo-2-propynyl butylcarbamate] the “mold resistance of coating” value (0.08% based on solids content of the emulsion paint, without leaching and wind tunnel exposure) was “mold-resistant” and the “activity of coating against mold” value (0.16% based on solids content of the emulsion paint, after leaching and wind tunnel exposure) was “active”.

— patent publication US20110009268A1, “IPBC-CONTAINING COACERVATES” (priority 2006, published 2011)
